# Results from PMC9403987 (Frontiers in Oncology, 2022).
# Assays:
# MCF-7 tumor cells = assay: Orthotopic MCF-7 breast cancer xenograft; format: in vivo, NOD/SCID mice; settings: 25 mg/kg daily oral
# Protocol: (§1) The efficacy of GLR2007 was evaluated in human GBM and breast cancer orthotopic cell-line-derived xenografts in NOD/SCID mice (Shanghai Lingchang Biotechnology Co. Ltd, Shanghai, China) and BALB/c nude mice (Shanghai Sino-British SIPPR/BK Laboratory Animal Co. Ltd, Shanghai, China), and human lung, colorectal, and liver cancer subcutaneous cell-line-derived xenografts in BALB/c nude mice (Nanjing University National Resource Center, Nanjing, China, or Beijing Anikeeper Biotech Co., Beijing, China). Mice were maintained in humidity- and temperature-controlled conditions with food and water available ad libitum.
# In two breast cancer orthotopic xenograft models, female NOD/SCID mice were subcutaneously implanted with an estrogen pellet (17β-estradiol; Innovative Research of America, Sarasota, FL, USA) one day before tumor inoculation. Mice were inoculated at 6–7 weeks old with 2×10^7 MCF-7 tumor cells plus Matrigel in a 1:1 ratio in PBS at a mammary fat pad or in the right flank. Randomization was performed when the mean tumor volume reached 135–138 mm^3.
# COLO 205 = assay: Subcutaneous COLO 205 colorectal cancer xenograft; format: in vivo, BALB/c nude mice; settings: 25 mg/kg daily oral, 26 days, measured day 25
# Protocol: as §1, with “libitum. For subcutaneous models, female BALB/c nude mice were inoculated at 4–8 weeks old with 3×10^6–1×10^7 tumor cells (see Table 1 for xenograft model cell types) in the right flank for tumor development. Randomization was performed when the mean tumor volume reached 118–171 mm^3.” for “libitum.”
# [1] = parameters: method as in PMID 26149830, PMID 20354191; settings: within 5 minutes after intravenous administration of 1 mg/kg; cited from earlier work
# BN2289 = assay: Subcutaneous BN2289 glioblastoma xenograft; format: in vivo, BALB/c nude mice; settings: 25 mg/kg daily oral, 28 days, measured day 21
# Protocol: as §1, with “libitum. For subcutaneous models, female BALB/c nude mice were inoculated at 4–8 weeks old with 3×10^6–1×10^7 tumor cells (see Table 1 for xenograft model cell types) in the right flank for tumor development. Randomization was performed when the mean tumor volume reached 118–171 mm^3.” for “libitum.”
# LI1088 = assay: Subcutaneous LI1088 liver cancer xenograft; format: in vivo, BALB/c nude mice; settings: 25 mg/kg daily oral, 28 days, measured day 25
# Protocol: as §1, with “libitum. For subcutaneous models, female BALB/c nude mice were inoculated at 4–8 weeks old with 3×10^6–1×10^7 tumor cells (see Table 1 for xenograft model cell types) in the right flank for tumor development. Randomization was performed when the mean tumor volume reached 118–171 mm^3.” for “libitum.”
# NCI-H1975 = assay: Subcutaneous NCI-H1975 non-small cell lung cancer xenograft; format: in vivo, BALB/c nude mice; settings: 25 mg/kg daily oral, 22 days, measured day 16
# Protocol: as §1, with “libitum. For subcutaneous models, female BALB/c nude mice were inoculated at 4–8 weeks old with 3×10^6–1×10^7 tumor cells (see Table 1 for xenograft model cell types) in the right flank for tumor development. Randomization was performed when the mean tumor volume reached 118–171 mm^3.” for “libitum.”
# [2] = mouse, in vivo, po, 100 mg/kg; cited from earlier work
SMILES,"TGI (%) (MCF-7 tumor cells; 21 days, measured day 21, 8 mice)","TGI (%) (MCF-7 tumor cells; 28 days, measured day 25, 10 mice)",TGI (%) (COLO 205),"unbound brain-to-plasma partition coefficient (Kp,uu) [1]",TGI (%) (BN2289),TGI (%) (LI1088),TGI (%) (NCI-H1975),"Kp,uu [2]"
"CC(=O)c1c(C)c2cnc(Nc3ccc(N4CCNCC4)cn3)nc2n(C2CCCC2)c1=O [Palbociclib, palbociclib, reference compound]",45.5,77.7,52.9,0.01,34.0,16.4,33.6,–
CN(C)C(=O)c1cc2cnc(Nc3ccc(N4CCNCC4)cn3)nc2n1C1CCCC1 [ribociclib],–,–,–,–,–,–,–,0.105
